This note sets out measurements from BindingDB's records for doi:10.1021/jm00127a026 (Medical University of South Carolina, 1989).

This test is described as follows: The apparent Km of compound as a substrate for partially purified mouse liver Folyl-polyglutamate synthase. The settings on record: read-out: Ki.
As for `NCCCC(NC(=O)c1ccc(OCc2ccc3nc[nH]c(=O)c3c2)cc1)C(=O)O` (stereo not given), the apparent Km worked out at 1.2 µM.
In the case of `NCCCC(NC(=O)c1ccc(OCc2ccc3nc(N)[nH]c(=O)c3c2)cc1)C(=O)O` (stereo not given), the apparent Km was 5.9 µM.
Regarding `NCCCC(NC(=O)c1ccc(NCc2ccc3nc(N)nc(N)c3c2Cl)cc1)C(=O)O` (stereo not given), the apparent Km was found to be 0.0017 µM.
For the compound `NCCCC(NC(=O)c1ccc(SCc2ccc3nc(N)[nH]c(=O)c3c2)cc1)C(=O)O` (stereo not given), the apparent Km stood at 2.8 µM.
For `NCCCC(NC(=O)c1ccc(SCc2ccc3nc[nH]c(=O)c3c2)cc1)C(=O)O` (stereo not given), the apparent Km was determined as 0.42 µM.
